According to ChEMBL document CHEMBL2396555, “Synthesis and acrosin inhibitory activities of 5-phenyl-1H-pyrazole-3-carboxylic acid amide derivatives” (Bioorg Med Chem Lett, 2013):

These compounds were tested against Acrosin (Homo sapiens, UniProt P10323) (assay: Inhibition of human sperm acrosin using BAPNA as substrate after 3 hrs by spectrophotometric analysis).
Acrosin, sequence (P10323 20-42 limits assumed): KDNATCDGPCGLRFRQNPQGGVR
Acrosin, sequence (P10323 43-343 limits assumed): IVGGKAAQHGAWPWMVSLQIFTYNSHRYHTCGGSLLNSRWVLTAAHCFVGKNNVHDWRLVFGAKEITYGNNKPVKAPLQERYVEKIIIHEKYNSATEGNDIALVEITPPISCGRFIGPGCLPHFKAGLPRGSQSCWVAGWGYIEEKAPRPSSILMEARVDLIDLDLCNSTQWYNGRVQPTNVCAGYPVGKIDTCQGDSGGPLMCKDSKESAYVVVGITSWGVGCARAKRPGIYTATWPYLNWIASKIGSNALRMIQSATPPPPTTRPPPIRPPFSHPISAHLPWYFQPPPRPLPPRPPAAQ

| SMILES | IC50 |
| --- | --- |
| CC(O)CNC(=O)c1cc(-c2ccc(Br)cc2)[nH]n1 (stereo not drawn) | 0.33 µmol/mL |
| CC(CO)NC(=O)c1cc(-c2ccccc2)[nH]n1 (stereo not drawn) | 3 µmol/mL |
| CC(O)CNC(=O)c1cc(-c2ccccc2)[nH]n1 (stereo not drawn) | 0.06 µmol/mL |
| O=C(NCCO)c1cc(-c2ccc(Br)cc2)[nH]n1 | 0.53 µmol/mL |
| O=C(NC(CO)(CO)CO)c1cc(-c2ccc([N+](=O)[O-])cc2)[nH]n1 | 5.22 µmol/mL |
| COc1ccc(-c2cc(C(=O)NCCOCCO)n[nH]2)cc1 | 6.02 µmol/mL |
| COc1ccc(-c2cc(C(=O)NCCO)n[nH]2)cc1 | 0.09 µmol/mL |
| CC(O)CN(CC(C)O)C(=O)c1cc(-c2ccccc2)[nH]n1 (stereo not drawn) | 0.01 µmol/mL |
| O=C(NCCCO)c1cc(-c2ccc(Br)cc2)[nH]n1 | 0.38 µmol/mL |
| O=Cc1cc(-c2ccc(Cl)cc2Cl)on1 | 0.39 µmol/mL |
| O=C(c1cc(-c2ccc(Br)cc2)[nH]n1)N(CCO)CCO | 1.52 µmol/mL |
| CC(CO)NC(=O)c1cc(-c2ccc(Br)cc2)[nH]n1 (stereo not drawn) | 0.88 µmol/mL |
| O=C(NCCCO)c1cc(-c2ccccc2)[nH]n1 | 0.54 µmol/mL |
| O=C(NCCOCCO)c1cc(-c2ccc(Br)cc2)[nH]n1 | 10 µmol/mL |
| O=C(NC(CO)(CO)CO)c1cc(-c2ccccc2)[nH]n1 | 0.94 µmol/mL |

The next lines start with the values.

| IC50 | SMILES |
| --- | --- |
| 0.76 µmol/mL | O=C(NCCO)c1cc(-c2cccc([N+](=O)[O-])c2)[nH]n1 |
| 1.21 µmol/mL | CC(O)CN(CC(C)O)C(=O)c1cc(-c2ccc([N+](=O)[O-])cc2)[nH]n1 (stereo not drawn) |
| 0.78 µmol/mL | O=C(NCCCO)c1cc(-c2cccc([N+](=O)[O-])c2)[nH]n1 |
| 3.07 µmol/mL | O=C(NCCCO)c1cc(-c2ccc([N+](=O)[O-])cc2)[nH]n1 |
| 2.95 µmol/mL | CC(O)CNC(=O)c1cc(-c2ccc([N+](=O)[O-])cc2)[nH]n1 (stereo not drawn) |
| 2.7 µmol/mL | O=C(NCCO)c1cc(-c2ccc([N+](=O)[O-])cc2)[nH]n1 |
| 2 µmol/mL | CN(CCO)C(=O)c1cc(-c2ccc([N+](=O)[O-])cc2)[nH]n1 |
| 0.79 µmol/mL | CN(CCO)C(=O)c1cc(-c2cccc([N+](=O)[O-])c2)[nH]n1 |
| 1.83 µmol/mL | CC(O)CNC(=O)c1cc(-c2cccc([N+](=O)[O-])c2)[nH]n1 (stereo not drawn) |
| 0.41 µmol/mL | COc1ccc(-c2cc(C(=O)N(C)CCO)n[nH]2)cc1 |
| 0.76 µmol/mL | O=C(NC(CO)(CO)CO)c1cc(-c2cccc([N+](=O)[O-])c2)[nH]n1 |
| 2.07 µmol/mL | O=C(NCCOCCO)c1cc(-c2ccc([N+](=O)[O-])cc2)[nH]n1 |
| 1.875 µmol/mL | CC(C)(CO)NC(=O)c1cc(-c2ccc([N+](=O)[O-])cc2)[nH]n1 |
| 5.6 µmol/mL | O=C(c1cc(-c2ccc([N+](=O)[O-])cc2)[nH]n1)N(CCO)CCO |
| 2.4 µmol/mL | O=C(c1cc(-c2cccc([N+](=O)[O-])c2)[nH]n1)N(CCO)CCO |
| 1.7 µmol/mL | O=C(c1cc(-c2ccccc2)[nH]n1)N(CCO)CCO |
| 9.1 µmol/mL | O=C(NCCOCCO)c1cc(-c2cccc([N+](=O)[O-])c2)[nH]n1 |
| 2.8 µmol/mL | O=C(NCCO)c1cc(-c2ccccc2)[nH]n1 |
